From EP4806435A1, “DIHYDROCHROMENE-DERIVATIVE-CONTAINING THERAPEUTIC AGENT FOR CANCER” (Sumitomo Pharma Co., Ltd., priority 2023, dated 2025)

Tested on: patients with recurrent malignant glioma classified as WHO grade III or IV
Assay: Phase 1 dose-escalation clinical trial: safety (TEAEs, DLTs, MTD);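 also: dosing continued until unacceptable toxicity, consent withdrawal, loss to follow-up or investigator/sponsor decision, with cohorts of 1-6 patients per dose level and MTD estimated by BLRM from cumulative DLT data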
[1] = 180 mg QD (N=6), cutoff April 21, 2024
[2] = 240 mg (N=5), cutoff April 21, 2023
[3] = 240 mg QD (N=6), cutoff April 21, 2024
[4] = 360 mg QD (N=6), cutoff April 21, 2024
[5] = 480 mg daily (240 mg BID) (N=6), cutoff April 21, 2024

Method: Administration to each subject was continued until unacceptable toxicity occurred, consent was withdrawn, the subject was lost to follow-up, or discontinuation was determined by the investigator and/or the sponsor.
The present study consists of two parts: a dose-escalation part (Part 1) and a dose-expansion part (Part 2).
Each dose level was evaluated in cohorts of 1-6 patients. In all cohorts, administration of the investigational drug to the second and subsequent patients was permitted after completion of all safety assessments on Day 8 of Cycle 1 in the first patient. […] At dose level 2 in the dose-escalation part, at least three patients were required to be evaluated before escalation to a higher dose level. After completion of each cohort, the probability of observing a DLT at each dose level in the present study was updated using the BLRM based on cumulative data from the preceding cohorts, and the MTD was estimated.

CC1(C)Oc2cc(Cl)ccc2[C@@H]2OCC3(CCN(CCn4ccnc4)CC3)C[C@H]21 [Compound 1, (4'aR,10'bR)-8'-chloro-1-[2-(1H-imidazol-1-yl)ethyl]-5',5'-dimethyl-4'a,10'b-dihydro-2'H,4'H,5'H-spiro[piperidine-4,3'-pyrano[3,2-c][1]benzopyran] diphosphate]
5 (100) n (%): Number of patients with any TEAE [2]
2 (40.0) n (%): TEAE: decreased lymphocyte count [2] | TEAE: increased aspartate aminotransferase [2] | TEAE: vomiting [2]
1 (20.0) n (%): TEAE: decreased appetite [2] | TEAE: hypertrigly-ceridaemia [2] | TEAE: seizure [2]
480 mg daily: maximum tolerated dose (MTD) (240 mg BID, dose as the present compound)
0 n (%): TEAE: decreased neutrophil count [1] | TEAE: fatigue [1] | TEAE: headache [1] | TEAE: hyponatremia [1] | TEAE: increase in blood cholesterol [1] | TEAE: maculopapular rash [1] | TEAE: decreased neutrophil count [2] | TEAE: decreased platelet count [2] | TEAE: decreased white blood cell count [2] | TEAE: fall [2] | TEAE: hyponatremia [2] | TEAE: Gait disturbance [3] | TEAE: Gastrointestinal disorder [3] | TEAE: Hiccups [3] | TEAE: Tremor [3] | TEAE: decreased neutrophil count [3] | TEAE: decreased platelet count [3] | TEAE: fall [3] | TEAE: hyponatremia [3] | TEAE: maculopapular rash [3] | TEAE: Confusional state [4] | TEAE: Hiccups [4] | TEAE: decreased lymphocyte count [4] | TEAE: dry skin [4] | TEAE: seizure [4] | TEAE: Tremor [5]
1 (16.7) n (%): TEAE: alopecia [1] | TEAE: decreased appetite [1] | TEAE: decreased lymphocyte count [1] | TEAE: decreased platelet count [1] | TEAE: diarrhea [1] | TEAE: dry skin [1] | TEAE: hypertrigly-ceridaemia [1] | TEAE: Confusional state [3] | TEAE: alopecia [3] | TEAE: diarrhea [3] | TEAE: fatigue [3] | TEAE: hypertrigly-ceridaemia [3] | TEAE: increase in blood cholesterol [3] | TEAE: seizure [3] | TEAE: Gait disturbance [4] | TEAE: Gastrointestinal disorder [4] | TEAE: decreased appetite [4] | TEAE: decreased neutrophil count [4] | TEAE: decreased platelet count [4] | TEAE: headache [4] | TEAE: hypertrigly-ceridaemia [4] | TEAE: hyponatremia [4] | TEAE: maculopapular rash [4] | TEAE: Gastrointestinal disorder [5]
4 (66.7) n (%): TEAE: increased alanine aminotransferase [1] | TEAE: dry skin [3] | TEAE: headache [3] | TEAE: nausea [3] | TEAE: increased alanine aminotransferase [4] | TEAE: vomiting [4]
3 (60.0) n (%): TEAE: constipation [2] | TEAE: dry skin [2] | TEAE: headache [2] | TEAE: nausea [2]
2 (33.3) n (%): TEAE: constipation [1] | TEAE: fall [1] | TEAE: increased aspartate aminotransferase [1] | TEAE: nausea [1] | TEAE: seizure [1] | TEAE: vomiting [1] | TEAE: decreased appetite [3] | TEAE: decreased lymphocyte count [3] | TEAE: increased aspartate aminotransferase [3] | TEAE: vomiting [3] | TEAE: Tremor [4] | TEAE: alopecia [4] | TEAE: constipation [4] | TEAE: diarrhea [4] | TEAE: fall [4] | TEAE: increase in blood cholesterol [4] | TEAE: Confusional state [5] | TEAE: Gait disturbance [5] | TEAE: Hiccups [5]
one: serious TEAE: neoplasm progression (240 mg QD group, cutoff April 21, 2024) | serious TEAE: neoplasm progression (240 mg group, cutoff April 21, 2023) | DLT (Grade 3 maculopapular rash; recovered to Grade 1 with treatment interruption) (360 mg QD, cutoff April 21, 2024)
4 (80.0) n (%): TEAE: increased alanine aminotransferase [2]
3 (50.0) n (%): TEAE: constipation [3] | TEAE: fatigue [4] | TEAE: increased aspartate aminotransferase [4]
one and One: DLT: Grade 3 maculo-papular rash (recovered to grade 1 with dose interruption) (360 mg cohort, as of September 2023)
6 (100) n (%): Number of Patients with Any TEAE [3] | TEAE: increased alanine aminotransferase [3] | Number of Patients with Any TEAE [4] | TEAE: nausea [4] | Number of Patients with Any TEAE [5]
